Five compounds from patent US8034606B2, “Acid tolerant Lactobacillus sakei probio-65 with the ability of growth suppression of pathogenic microorganisms and the anti-allergic effect” (priority 2005, dated 2011) can be followed below.

This assay has as its system Lactobacillus sakei Probio-65. Nature of the assay: Antibiotic sensitivity test of the strain against fourteen antibiotics. Format: cell-based. The settings on record: for Diameter: antibiotic amount 2 to 250 μg depending on antibiotic, compared with Resistance (mm); for Results: antibiotic amount (μg), resistant or susceptible by diameter (mm).

As for `CN(C)c1ccc(O)c2c1C[C@H]1C[C@H]3[C@H](N(C)C)C(O)=C(C(N)=O)C(=O)[C@@]3(O)C(O)=C1C2=O` [Minocyclin], the Diameter is given as 26 mm and the Results result was “S”.

`CC1(C)S[C@@H]2[C@H](NC(=O)Cc3ccccc3)C(=O)N2[C@H]1C(=O)O` [Penicillin G] displayed a Diameter of 20 mm.

For `Cc1noc(NS(=O)(=O)c2ccc(N)cc2)c1C` [Sulfisoxzazole], the Diameter came out at 0 mm and the Results entry was “R”.

On to Gentamicin, for which the Diameter was 9 mm and the Results result is recorded as “R”.

Take Neomycin: the Diameter is listed as 9 mm and the Results entry is recorded as “R”.
